Experimental data published in PubChem BioAssay AID248 (DTP/NCI, 2004).
“And” between values parts separate entries of the source, which are not always exact repeats. Equal values may be shown once. Inconclusive results and toxic doses are left out. Rule as the data show it: active = T/C of 150% or more; inactive = T/C below 125%.

System: L1210 leukemia ip in BDF1 mice, survival T/C
Assay: NCI In Vivo Anticancer Drug Screen. Data for tumor model L1210 Leukemia (intraperitoneal) in B6D2F1 (BDF1) mice
Conditions: endpoint: mean survival time, higher = longer survival
Method in brief: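 Antitumor effect is assessed in tumor-bearing animals. Survival in the compound arm is compared with a vehicle-dosed control arm and expressed as their quotient.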

[1] = dose: 100.0 mg/kg/injection, schedule: Q01DX001 (ip), vehicle: Klucel (hydroxypropylcellulose) (HPC)
[2] = dose: 200.0 mg/kg/injection, schedule: Q01DX001 (ip), vehicle: Klucel (hydroxypropylcellulose) (HPC)
[3] = dose: 400.0 mg/kg/injection, schedule: Q01DX001 (ip), vehicle: Klucel (hydroxypropylcellulose) (HPC)
[4] = dose: 100.0 mg/kg/injection, schedule: Q04DX002 (ip), vehicle: Klucel (hydroxypropylcellulose) (HPC)
[5] = dose: 200.0 mg/kg/injection, schedule: Q04DX002 (ip), vehicle: Klucel (hydroxypropylcellulose) (HPC)
[6] = dose: 400.0 mg/kg/injection, schedule: Q04DX002 (ip), vehicle: Klucel (hydroxypropylcellulose) (HPC)
[7] = dose: 100.0 mg/kg/injection, schedule: Q01DX009 (ip), vehicle: saline with Tween-80
[8] = dose: 100.0 mg/kg/injection, schedule: Q01DX009 (ip), vehicle: Klucel (hydroxypropylcellulose) (HPC)
[9] = dose: 200.0 mg/kg/injection, schedule: Q01DX009 (ip), vehicle: Klucel (hydroxypropylcellulose) (HPC)
[10] = dose: 400.0 mg/kg/injection, schedule: Q01DX009 (ip), vehicle: Klucel (hydroxypropylcellulose) (HPC)
[11] = dose: 100.0 mg/kg/injection, schedule: Q04DX003 (ip), vehicle: saline with Tween-80
[12] = dose: 200.0 mg/kg/injection, schedule: Q01DX009 (ip), vehicle: saline with Tween-80
[13] = dose: 200.0 mg/kg/injection, schedule: Q04DX003 (ip), vehicle: saline with Tween-80
[14] = dose: 400.0 mg/kg/injection, schedule: Q01DX009 (ip), vehicle: saline with Tween-80
[15] = dose: 400.0 mg/kg/injection, schedule: Q04DX003 (ip), vehicle: saline with Tween-80
[16] = dose: 50.0 mg/kg/injection, schedule: Q01DX009 (ip), vehicle: saline
[17] = dose: 100.0 mg/kg/injection, schedule: Q01DX009 (ip), vehicle: saline
[18] = dose: 100.0 mg/kg/injection, schedule: Q04DX003 (ip), vehicle: saline

Measured: T/C

O=Cc1cccc(Oc2cccc(C=O)c2)c1
inactive: [1] 97 % of control | [2] 95 % of control | [3] 92 % of control

CCCCCCCCCCCCCCCC=C(C)C
inactive: dose: 100.0 mg/kg/injection, schedule: Q01DX001 (ip), vehicle: saline with Tween-80 101 % of control | dose: 200.0 mg/kg/injection, schedule: Q01DX001 (ip), vehicle: saline with Tween-80 103 % of control

C=CC(COC(C)=O)N1CC1 (centres undefined)
inactive: dose: 1.0 mg/kg/injection, schedule: Q01DX Z (ip), vehicle: carboxymethylcellulose (CMC) 100 % of control | dose: 2.0 mg/kg/injection, schedule: Q01DX Z (ip), vehicle: carboxymethylcellulose (CMC) 92 % of control | dose: 4.0 mg/kg/injection, schedule: Q01DX Z (ip), vehicle: carboxymethylcellulose (CMC) 104 % of control | dose: 5.0 mg/kg/injection, schedule: Q01DX Z (oral), vehicle: saline 101 % of control | dose: 7.5 mg/kg/injection, schedule: Q01DX Z (ip), vehicle: saline 104 % of control | dose: 7.5 mg/kg/injection, schedule: Q01DX Z (oral), vehicle: saline 104 % of control | dose: 8.0 mg/kg/injection, schedule: Q01DX Z (ip), vehicle: carboxymethylcellulose (CMC) 101 % of control | dose: 10.0 mg/kg/injection, schedule: Q01DX Z (oral), vehicle: saline 104 % of control | dose: 12.0 mg/kg/injection, schedule: Q01DX Z (ip), vehicle: carboxymethylcellulose (CMC) 110 % of control | dose: 15.0 mg/kg/injection, schedule: Q01DX Z (ip), vehicle: saline 121 % of control | dose: 15.0 mg/kg/injection, schedule: Q01DX Z (oral), vehicle: saline 105 % of control | dose: 20.0 mg/kg/injection, schedule: Q01DX Z (oral), vehicle: saline 114 % of control | dose: 25.0 mg/kg/injection, schedule: Q01DX Z (ip), vehicle: carboxymethylcellulose (CMC) 96 % of control | dose: 30.0 mg/kg/injection, schedule: Q01DX Z (ip), vehicle: saline 97 % of control | dose: 40.0 mg/kg/injection, schedule: Q01DX Z (oral), vehicle: saline 116 % of control | dose: 60.0 mg/kg/injection, schedule: Q01DX Z (oral), vehicle: saline 100 % of control

CCOC(=O)c1ncc(Cl)cc1N
inactive: [1] 106 % of control | [2] 108 % of control

O=C(O)/C=C/c1nc2ccccc2nc1-c1ccccc1
inactive: [4] 101 % of control | [5] 113 % of control | [6] 101 % of control

Cc1ccc(N)c(Br)c1
inactive: dose: 50.0 mg/kg/injection, schedule: Q01DX009 (ip), vehicle: saline with Tween-80 99 % of control | [7] 97 % of control

Clc1ccc2c(c1)Cc1cc(Cl)cc(Cl)c1-2
inactive: dose: 100.0 mg/kg/injection, schedule: Q04DX003 (ip), vehicle: Klucel (hydroxypropylcellulose) (HPC) 98 % of control | dose: 200.0 mg/kg/injection, schedule: Q04DX003 (ip), vehicle: Klucel (hydroxypropylcellulose) (HPC) 100 % of control | dose: 400.0 mg/kg/injection, schedule: Q04DX003 (ip), vehicle: Klucel (hydroxypropylcellulose) (HPC) 96 % of control

O=C1C2C3CCC(O3)C2C(=O)N1Cc1ccccc1CN1C(=O)C2C3CCC(O3)C2C1=O (centres undefined)
inactive: [8] 91 % of control | [9] 91 % of control | [10] 88 % of control

O=C(NO)Nc1ccccc1
inactive: dose: 50.0 mg/kg/injection, schedule: Q01DX Z (ip), vehicle: carboxymethylcellulose (CMC) 94 % of control | [7] 98 % of control | dose: 100.0 mg/kg/injection, schedule: Q01DX Z (ip), vehicle: carboxymethylcellulose (CMC) 95 % of control | [11] 95 % of control | dose: 150.0 mg/kg/injection, schedule: Q01DX Z (ip), vehicle: methylcellulose (MC) 112 % of control | [12] 109 % of control | [13] 96 % of control | dose: 230.0 mg/kg/injection, schedule: Q01DX Z (ip), vehicle: methylcellulose (MC) 97 % of control | [14] 98 % of control | [15] 106 % of control

CC1=C(C)C2(C)C1(C)C1(C)NN=NC12c1ccccc1 (centres undefined)
inactive: [11] 95 % of control | [13] 91 % of control | [15] 101 % of control

CCCCCN(CCCCC)CCC(=O)c1ccc2cc(Br)c3ccccc3c2c1
inactive: dose: 13.3 mg/kg/injection, schedule: Q01DX Z (ip), vehicle: methylcellulose (MC) 91 % of control | dose: 20.0 mg/kg/injection, schedule: Q01DX Z (ip), vehicle: methylcellulose (MC) 92 % of control | dose: 30.0 mg/kg/injection, schedule: Q01DX Z (ip), vehicle: methylcellulose (MC) 92 % of control

N=C(N)c1ccc(-c2cc(-c3ccc(C(=N)N)cc3)on2)cc1
inactive: dose: 6.25 mg/kg/injection, schedule: Q04DX003 (ip), vehicle: saline 100 % of control | dose: 12.5 mg/kg/injection, schedule: Q04DX003 (ip), vehicle: saline 103 % of control | dose: 25.0 mg/kg/injection, schedule: Q04DX003 (ip), vehicle: saline 108 % of control

CC1(c2cccs2)C(=O)N(Cl)C(=O)N1Cl (centres undefined)
inactive: dose: 25.0 mg/kg/injection, schedule: Q01DX009 (ip), vehicle: saline 110 % of control | [16] 106 % of control | [17] 104 % of control | [18] 96 % of control

O=C(C#Cc1ccccc1)[O][Sn]([c]1ccccc1)([c]1ccccc1)[c]1ccccc1
inactive: dose: 1.56 mg/kg/injection, schedule: Q01DX009 (ip), vehicle: saline 102 % of control | dose: 3.12 mg/kg/injection, schedule: Q01DX009 (ip), vehicle: saline 94 % of control | dose: 6.25 mg/kg/injection, schedule: Q01DX009 (ip), vehicle: saline 96 % of control and 108 % of control

O=C(O)C(CSCc1ccccc1)NSc1ccccc1[N+](=O)[O-] (centres undefined)
inactive: [1] 105 % of control | [18] 97 % of control | [2] 105 % of control | dose: 200.0 mg/kg/injection, schedule: Q04DX003 (ip), vehicle: saline 95 % of control | [3] 101 % of control | dose: 400.0 mg/kg/injection, schedule: Q04DX003 (ip), vehicle: saline 106 % of control

O=Cc1ccc(O)c(Br)c1
inactive: [7] 100 % of control | [12] 109 % of control | [14] 88 % of control

C=Cc1cnc(NC(C)=O)c(C#N)n1
inactive: [1] 103 % of control | [2] 100 % of control

CCN(CC)C(=S)N1CCCCC1
inactive: [8] 99 % of control | [4] 100 % of control | [9] 105 % of control | [5] 90 % of control | [10] 108 % of control | [6] 110 % of control

CCCC(=O)OC(=O)N/C=C/NC(=O)OC(=O)CCC
inactive: dose: 100.0 mg/kg/injection, schedule: Q01DX001 (ip), vehicle: alcohol 103 % of control | dose: 200.0 mg/kg/injection, schedule: Q01DX001 (ip), vehicle: alcohol 103 % of control | dose: 400.0 mg/kg/injection, schedule: Q01DX001 (ip), vehicle: alcohol 94 % of control

CC(Cc1ccc(O)c(O)c1)C(C)Cc1ccc(O)c(O)c1 (centres undefined)
inactive: [16] 98 % of control | [17] 100 % of control | dose: 200.0 mg/kg/injection, schedule: Q01DX009 (ip), vehicle: saline 96 % of control | dose: 400.0 mg/kg/injection, schedule: Q01DX009 (ip), vehicle: saline 100 % of control
